Experimental data: PMC4747989, “Bio-conjugation of antioxidant peptide on surface-modified gold nanoparticles: a novel approach to enhance the radical scavenging property in cancer cell” (Cancer Nanotechnology, 2016)
Ends that are not written are not given here.

Columns and labels:
[1] = system: MIOM1 (Muller-glial) non-neoplastic cells; experiment: Cytotoxicity (MTT) assay, MIOM1; assay type: cell-based, human; settings: 24 and 48 h, 10-100 µM
Description: (§1) Y79 retinoblastoma and MIOM1 cells were seeded at 5 × 10^3 cells/well in 96-well plates and incubated at 37 °C overnight. The cells were then treated with varying concentrations (10, 30, 60, and 100 µM) of Pep-A and Pep-B in a fresh medium and incubated for specific time periods (24 and 48 h). At the end of the incubation, 10 µl of MTT [3-(4, 5-dimethylthiazol-2-yl)-2, 5-diphenyltetrazolium bromide; 5 mg/ml] was added to the cells with fresh medium (100 µl) and incubated at 37 °C until formazan crystals were formed. The formazan crystals were dissolved in 100 µl of DMSO, and the reading was taken at 570 nm (BioTek, ELISA, USA). Cell viability was calculated as Test OD/Control OD × 100.

Y79 retinoblastoma cells = experiment: Cytotoxicity (MTT) assay, Y79; assay type: cell-based; settings: 24 and 48 h, 10-100 µM
Description: as §1
Cytotoxic effects of GNPs and Pep-A were evaluated by MTT assay as per the protocol described in “Cytotoxicity assay” section. Antioxidant effects of GNPs-Pep-A, bioconjugate were evaluated by measuring the cellular ROS and SOD enzyme activity by similar methods as described in “Measurement of intracellular ROS levels on peptide treatment using 2′, 7′ dichlorodihydrofluorescein (DCF) assay” and “SOD activity measurement” sections, respectively. […] Total RNA was isolated using Trizol, and concentration of RNA was quantified using a Nanodrop (Biospec-Nano,Shimadzu, Biotech, Japan). […] Quantification of target gene expression was performed in triplicate in a 20-µl reaction mixture containing 0.1 µg of cDNA, specific primers (Table 1), and SYBR green reagent in 96-well plates on a real-time PCR system (Applied Biosystems, Singapore). GAPDH and β actin were used as internal controls, and the detection was carried out by measuring the binding of fluorescence dye SYBR green to double-stranded DNA. After cycling, relative quantitation of the tested gene cDNA against the internal control was performed using the ΔCT method. The relative amount of gene-specific mRNA to housekeeping gene was calculated using 2^−ΔΔCt, where Ct, the number of cycles at which amplification reaches a threshold, is determined using SDS software version 1.3.

Y79 cells [2] = experiment: Peptide uptake by flow cytometry (FACS); assay type: cell-based; settings: 4 h; for FITC positive population in M2: Y79 RB cells, flow cytometry; for M1 population: Y79 cells, histogram statistic in text, in % (unit assumed)
Description: (§2) The Y79 cells were seeded on the lysine (0.01 mg/ml)-coated glass slide. The cells were cultured overnight and treated with different concentrations (50 or 100 µM) of FITC-tagged Pep-A for 4 h, for studying the localization and internalization of the peptide by fluorescence microscopy. The FITC-labeled peptide A molecules (molecular mass 771.2) were custom synthesized (CPS 1468-1, custom peptide synthesis, USV limited India) with ~95 % purity obtained by HPLC method. The GNPs and GNPs-Pep-A conjugates were doped with the R6G dye as described by Kalmodia et al., for the internalization study (Kalmodia et al. [2013]). The internalization of the peptide, R6G-doped GNPs and GNPs-Pep-A after 4 h was qualitatively detected by Zeiss LSM, 710 laser microscope supplied by Axio vision (Germany). […] Y79 cells were seeded at 2 × 10^5 cells/well in six-well plates and treated with 50 and 100 µM concentrations of Pep-A for 4 h. The cells were then spun at 1500 rpm for 5 min, washed with PBS buffer, and then resuspended in FACS buffer. The cells were then analyzed for uptake of the peptide using FACS Calibur (BD Biosciences, CA, USA) by means of CELL QUEST PRO software. The fluorescence of FITC-stained cells was excited with an argon laser at 488 nm, and the emissions were detected at 530 nm. The overlay graph and scattered plot were used to confirm the FITC positive cell population.

Y79 cells [3] = experiment: Internalization by fluorescence microscopy; assay type: cell-based; settings: Y79 RB cells; FITC-labeled Pep-A, R6G dye-doped GNPs and GNPs-Pep-A; 4 h (method), 3 h (Fig. 5 legend)
Description: as §2

PHCKRM [Pep-A, Pro-His-Cys-Lys-Arg-Met] was tested, and the “cytotoxicity to non-cancerous MIO-M1 cells (in words)” value [1] was “no cytotoxicity”, the “cytotoxicity to non-cancerous MIO-M1 cells (in words)” value ([1]; listed as pep-A) was “no toxicity” and the “cytotoxicity to Y79 cells (in words)” value (Y79 retinoblastoma cells) was “no cytotoxicity”. For the same substance, the “cytotoxicity to Y79 cells (in words)” value (Y79 retinoblastoma cells; listed as pep-A) was “no toxicity”, the “uptake into the Y79 cells (in words)” value (Y79 cells [2]; FACS, 50 and 100 µM) was “concentration-dependent uptake” and the “FITC positive population in M2” value (Y79 cells [2]; 50 µM FITC-tagged Pep-A, Fig. 4b) was 99%. For the same substance, the “FITC positive population in M2” value (Y79 cells [2]; 100 µM FITC-tagged Pep-A, Fig. 4c) was 99%, the M1 population (Y79 cells [2]; 50 µM of Pep-A, control 99.99) was 99.97 and the M1 population (Y79 cells [2]; second mention printed as 50 µM of Pep-A) was 99.95. The “internalization by fluorescence microscopy (in words)” value (Y79 cells [3]) was “internalization”.
“TRNYYVRAVL [Pep-B, Thr-Arg-Asn-Tyr-Tyr-Val-Arg-Ala-Val-Leu]” was tested, and the “cytotoxicity to non-cancerous MIO-M1 cells (in words)” value [1] was “no cytotoxicity” and the “cytotoxicity to Y79 cells (in words)” value (Y79 retinoblastoma cells) was “no cytotoxicity”.
